Source: patent US9314508B2, “Use of somatostatin analogs in control of hypoglycemia” (priority 2008, dated 2016)

Legend:
[1] = tested on: adult male Lewis rats fasted for 24 h; experiment: glyburide induced hypoglycemia in fasted rats, plasma glucose; type: in vivo, rat; settings: for glucose −30 min / glucose 1 h / glucose 3 h / glucose 6 h / glucose −24 h: fasted animals; for glucose −30 min: 30 min before application (baseline); for glucose 1 h: 1 h after application; for glucose 3 h: 3 h after application; for glucose 6 h: 6 h after application; for glucose −24 h: 24 h before application (baseline)
Procedure: Food restriction for 24 h reduced plasma glucose concentration in all treatment groups from about 8 mmol/l to approximately 6 mmol/l. 30 min before the application of the compound (FIG. 1, Table 1).

fed rats = experiment: glyburide effect on plasma glucose in fed rats; type: in vivo, rat; settings: for glucose −30 min / glucose 1 h / glucose 3 h / glucose 6 h / glucose −24 h: fed animals; for glucose −30 min: 30 min before application (baseline); for glucose 1 h: 1 h after application; for glucose 3 h: 3 h after application; for glucose 6 h: 6 h after application; for glucose −24 h: 24 h before application (baseline)
Procedure: 30 min before the application of the compound (FIG. 1, Table 1).

patients = patients with hypoglycemia receiving octreotide; cited from earlier work
[2] = Glyburide 30 mg/kg p.o. + 10 μg/kg s.c.
[3] = Glyburide 30 mg/kg p.o. + 30 μg/kg s.c.

Row | Compound | glucose −30 min [1, 2] [mmol/L] | glucose 1 h [1, 2] [mmol/L] | glucose 3 h [1, 2] [mmol/L] | glucose 6 h [1, 2] [mmol/L] | glucose −24 h [1, 2] [mmol/L] | glucose −30 min [1, 3] [mmol/L] | glucose 1 h [1, 3] [mmol/L] | glucose 3 h [1, 3] [mmol/L] | glucose 6 h [1, 3] [mmol/L] | glucose −24 h [1, 3] [mmol/L] | glucose 1 h (fed rats; [2]) [mmol/L] | glucose 3 h (fed rats; [2]) [mmol/L] | glucose 6 h (fed rats; [2]) [mmol/L] | glucose −24 h (fed rats; [2]) [mmol/L] | glucose 1 h (fed rats; [3]) [mmol/L] | glucose 3 h (fed rats; [3]) [mmol/L] | glucose 6 h (fed rats; [3]) [mmol/L] | glucose −24 h (fed rats; [3]) | also measured
1 | COc1ccc(Cl)cc1C(=O)NCCc1ccc(S(=O)(=O)NC(=O)NC2CCCCC2)cc1 [Glyburide] | – | – | – | – | – | – | – | – | – | – | – | – | – | – | – | – | – | – | glucose −30 min ([1]; Glyburide 30 mg/kg p.o. alone): 6.07 ± 0.39 mmol/L; glucose 1 h ([1]; Glyburide 30 mg/kg p.o. alone): 5.48 ± 0.15 mmol/L; glucose 3 h ([1]; Glyburide 30 mg/kg p.o. alone): 4.17 ± 0.16 mmol/L; glucose 6 h ([1]; Glyburide 30 mg/kg p.o. alone): 3.53 ± 0.13 mmol/L; glucose −24 h ([1]; Glyburide 30 mg/kg p.o. alone): 7.87 ± 0.34 mmol/L; minimum plasma glucose level ([1]; fasted rats, Glyburide 30 mg/kg p.o. alone, 6 h after the application): 3.5 mmol/L; glucose −30 min (fed rats; Glyburide 30 mg/kg p.o. alone): 8.72 ± 0.14 mmol/L; glucose 1 h (fed rats; Glyburide 30 mg/kg p.o. alone): 7.42 ± 0.18 mmol/L; glucose 3 h (fed rats; Glyburide 30 mg/kg p.o. alone): 5.33 ± 0.16 mmol/L; glucose 6 h (fed rats; Glyburide 30 mg/kg p.o. alone): 6.27 ± 0.16 mmol/L; glucose −24 h (fed rats; Glyburide 30 mg/kg p.o. alone): 8.65 ± 0.11 mmol/L; hypoglycemic effect (fed rats; fed rats, glyburide alone): not very pronounced
2 | C[C@@H](O)[C@@H]1NC(=O)[C@H](CCCCN)NC(=O)[C@@H](Cc2c[nH]c3ccccc23)NC(=O)[C@H](Cc2ccccc2)NC(=O)[C@@H](NC(=O)[C@H](N)Cc2ccccc2)CSSC[C@@H](C(=O)N[C@H](CO)[C@@H](C)O)NC1=O [octreotide] | 5.75 ± 0.21 | 4.27 ± 0.07 | 4.28 ± 0.14 | 4.28 ± 0.23 | 8.53 ± 0.27 | 6.43 ± 0.49 | 4.22 ± 0.14 | 5.83 ± 0.28 | 4.83 ± 0.24 | 8.63 ± 0.19 | 7.27 ± 0.15 | 5.80 ± 0.24 | 6.00 ± 0.44 | 8.17 ± 0.38 | 7.48 ± 0.25 | 5.63 ± 0.24 | 6.10 ± 0.43 | 8.07 + 0.43 mmol/L | prevention of the glyburide induced hypoglycemia ([1]; fasted rats, Glyburide 30 mg/kg p.o. + 10 or 30 μg/kg s.c., after 1 h): not effective; effect on glucose levels in glyburide treated rats ([1]; fasted rats, highest dose (30 μg/kg s.c.), after 3 and 6 h): only a small tendency to increase glucose levels; serum glucose level versus controls (patients): higher than that in controls; time within which the effect on serum glucose waned (patients): ≤ 8 h
3 | cyclo[{(4-(NH2—C2H4—NH—CO—O—)Pro}-Phg-DTrp-Lys-Tyr(4-Bzl)-Phe] [pasireotide] | 5.88 ± 0.16 | 7.00 ± 0.42 | 6.22 ± 0.42 | 6.48 ± 0.52 | 8.07 ± 0.45 | 6.10 ± 0.23 | 6.98 ± 0.59 | 7.55 ± 0.47 | 7.58 ± 0.47 | 7.93 ± 0.52 | 13.48 ± 0.65 | 12.42 ± 0.39 | 6.85 ± 0.23 | 8.65 ± 0.18 | 13.47 ± 0.91 | 13.13 ± 0.69 | 9.12 ± 0.47 | 8.85 ± 0.25 mmol/L | effect on plasma glucose in glyburide treated rats ([1]; fasted rats, Glyburide 30 mg/kg p.o. + 10 or 30 μg/kg s.c., 1, 3 and 6 h after the application): plasma glucose increased to levels of untreated fasted rats or above; glucose −30 min (fed rats; [2]): 8.53 ± 0.34 mmol/L; glucose −30 min (fed rats; [3]): 8.10 ± 0.29 mmol/L; effect on plasma glucose (fed rats; fed rats pretreated with glyburide): significant but transit effect
